Reference: patent US20060205642A1, “Oral methods of treatment using proANF peptides” (priority 2005, published 2006)
Entries after “also recorded” stand apart in the source; their conditions may differ.

Tests used:
[1] = tested on: particulate guanylate cyclase; test: Particulate guanylate cyclase activity in the kidney; format: biochemical; details: 1 μM; whole kidney homogenates, renal cortical and medullary membranes, isolated distal nephrons
Experimental: Testing is also carried out to determine biologic effects of these peptides by measuring their effects on particulate guanylate activity in the kidney.

[2] = tested on: prostaglandin E2 (PGE2) synthesis; test: Prostaglandin E2 synthesis (FIG. 8); format: biochemical; details: n=6, ANOVA and Duncan's MRT
[3] = Infusion into healthy human subjects; format: in vivo; details: healthy humans; for potassium excretion: 100 ng/kg body wt; for increase in urine volume (in words): 100 ng/kg body wt per minute for 1 hour i.v., n=6, ANOVA; for sodium excretion (in words): 100 ng/kg body wt per minute for 60 minutes, vs baseline; for systolic and diastolic blood pressures: 100 ng/kg body wt per minute i.v. for 60 min, n=6
Experimental: Infusion of these peptides into healthy human subjects was performed as follows: Human pro-ANF 1-30, pro-ANF 31-67, and pro-ANF 79-98, and hANF (i.e., pro-ANF 99-126, were synthesized by Peninsula Laboratories (Belmont, Calif.). High pressure liquid chromatography (HPLC) analysis was performed on a sample of each of the four peptides to ensure purity. The peptides were dissolved in a sterile 0.9% saline solution to a concentration of 100 μg/ml and dispensed in 2 and 5 ml aliquots into sealed sterile vials. At the time of dispensing, randomly selected vials were tested for pyrogens and sterility. Prior to labeling the vials, the actual peptide content of the dispensed solution were determined by direct radioimmunoassay to account for any possible absorption of the respective peptides to the walls of the vials. All vials were then stored at −80° C. until thawed for individual study.
Normal healthy subjects were chosen on the basis of age (between 20 and 50 years), physical examination and biochemical screenings. The subjects consumed their normal diets prior to testing. The subjects fasted overnight and were tested in the morning in the seated position. Intravenous catheters were placed bilaterally for the administration of pro-hANF 1-30, pro-hANF 31-67, pro-hANF 79-98 and hANF (pro-hANF 99-126) and for blood sampling. After completion of a 45-minute equilibration period, there were three […] phases of the study: baseline, experimental infusion (60 minutes) and recovery (3 hours). The baseline phase consisted of two 30 minute urine collection periods, the experimental phase consisted of three 20 minute urine and plasma collection periods, and the recovery phase consisted of two 30 minute urine and plasma collection periods each hour for three hours post-infusion. Urine output was replaced on a milliliter per milliliter basis throughout the study by administering oral water or orange juice. Urine samples were obtained by voiding at the designated collection periods.
The 36 subjects were divided into 6 groups. One group (i.e., the control group) received a placebo infusion of 0.9% sodium chloride during the experimental infusion phase. […] The four remaining groups of six subjects each received human pro-hANF 1-30, pro-hANF 31-67, pro-hANF 79-98 and HANF. The four groups received the peptides by continuous infusion at the rate of 0.1 μg/kg per minute. The volume administered per hour during the experimental infusion phase was 10 ml for all four peptides and the placebo. All infusions were given by a constant-rate infusion pump, with the final concentrations of prohANFs adjusted for the subjects' body weight. The subjects heart rate and cuff blood pressure were taken at 5 minute intervals throughout the study. The excreted urine was analyzed for sodium concentration.

[4] = tested on: renal medullary Na+-K+-ATPase; test: Inhibition of renal medullary Na+-K+-ATPase activity (FIG. 9); format: biochemical; details: for inhibition of renal medullary Na+-K+-ATPase activity: 10^-11 M, n=6, ANOVA
Description: FIG. 9. Inhibition of renal medullary Na+-K+-ATPase activity by proANF 79-98 (kaliuretic peptide), proANF 1-30 (long acting natriuretic peptide), proANF 31-67 (vessel dilator), and angiotensin II at their […] concentrations.

[5] = tested on: particulate guanylate cyclase; test: Cyclic GMP / particulate guanylate cyclase activation in cultured smooth muscle cells and porcine aorta; format: cell-based; details: for concentration of maximal activation of guanylate cyclase activity / EC50: porcine aorta and isolated smooth muscle cells; for EC50: read-out: half maximal activation (ED5o) of guanylate cyclase
[6] = Rat clearance model (diuresis and salt excretion); format: in vivo, Munich-Wistar rats; details: for FENa, fractional excretion of sodium / UNa, urinary sodium / UNaV, urinary sodium excretion rate / V, urine flow rate: means ± SE
Experimental: The same three peptides and ANF from Example I are tested using the rat clearance model. Six control rats and six experimental Munich-Wistar rats, each weighing 150-200 grams, are used for each peptide, with catheters being placed in both jugular veins and in the femoral artery. The ureters are cannulated for simultaneous urine collections with femoral artery blood collections.
After inserting the catheters, a stabilization of one hour is allowed. A 10 μg/kg bolus of each of the respective human sequences of the peptides is given via the jugular vein to six experimental rats followed by a sustaining infusion of 0.1 μg/kg/min for 60 minutes. Blood and urine samples are collected at 20 minute intervals during this 60 minute infusion. In both the control and experimental animals, hematocrits and plasma sodium values remained at the same levels pre- and post-infusion while blood pressure decreased with each of these peptides (see Attachment B).

[7] = Infusion into human subjects with Class III NYHA congestive heart failure; format: in vivo, humans; details: for enhancement of sodium excretion: CHF subjects, 100 ng/kg body weight/min for 60 minutes
Experimental: Human proANF's 1-30, 31-67, 79-98, and 99-126 (i.e., ANF) were infused into human subjects with Class III New York Heart Association congestive heart failure (CHF). An identical protocol to that used in example V where these peptides were infused into healthy human subjects was utilized. (See Attachment C and F for a detailed description of this protocol). The human subjects with congestive heart failure received an identical dose (0.1 μg/kg body wt/minute for 60 minutes) that the healthy human subjects received. […] This striking urine output secondary to proANF 31-67 was significant at P<0.0001 compared to the pre-infusion output of the congestive heart failure subjects (n=6).

[8] = tested on: porcine aortas; test: Vasodilation of porcine aortic strips preconstricted with 0.3 micromolar phenylephrine
Experimental: 30 Kg pigs are sacrificed, and aortic strips are harvested. The strips are attached to F-60 transducer (Narco-BioSystems, Houston, Tex.) and attached to a physiography (Narco-BioSystems) while being submerged in a muscle tissue bath comprising a Krebs Ringer solution at 37° C., with 95% O2-5% CO2, bubbled through the bath. Percentage vasodilation is measured versus time after preconstriction with 0.3 micromolar phenylephrine. […] (Vesely et al., Biochem. Biophys. Res. Commun. 148:1540-1548, 1987).

[9] = target: particulate guanylate cyclase of porcine aorta and cultured smooth muscle cells (porcine)
[10] = A, control period (before peptide)
[11] = B, first 60-minute experiment period, 10 μg/kg bolus then 0.1 μg/kg/min via jugular vein
[12] = B, first 60-minute experiment period, 10 μg/kg bolus then 0.1 μg/kg/min
[13] = C, second 60-minute experimental period, 10 μg/kg bolus then 0.1 μg/kg/min
[14] = C, second 60-minute experimental period

Molecule: H-NPMYNAVSNADLMDFKNLLDHLEEKMPLED-OH [proANF 1-30]
- particulate guanylate cyclase activity [1]: enhance
- prostaglandin E2 (PGE2) synthesis [2]: increase prostaglandin E2 (PGE2) synthesis
- duration of sodium excreting effects compared to ANF [3]: significantly (P<0.001) prolonged compared to ANF
- potassium excretion [3]: significant (P<0.05)
- increase in urine volume (in words) [3]: significant
- sodium excretion (in words) [3]: significantly (P<0.05) increased
- systolic and diastolic blood pressures [3]: significant
- duration of sodium excreting effects compared to ANF ([3]; listed as ProANF 1-30): last significantly (P<0.001) longer than ANF's effects
- inhibition of renal medullary Na+-K+-ATPase activity [4]: significant at P<0.01
- cyclic GMP levels in cultured smooth muscle cells [5]: increase cyclic GMP levels
- concentration of maximal activation of guanylate cyclase activity [5]: about 1 μM
- EC50 [5]: ~10 nM
- FENa, fractional excretion of sodium [6, 10]: 0.023 ± 0.002%
- UNa, urinary sodium [6, 10]: 34.13 ± 10.98 meq/1
- UNaV, urinary sodium excretion rate [6, 10]: 36.37 ± 8.09 μeq · min^−1 · g kidney wt^−1
- V, urine flow rate [6, 10]: 1.83 ± 0.27 μl · min^−1 · g kidney wt^−1
- V, urine flow rate [6, 11]: 3.41 ± 0.48 μl · min^−1 · g kidney wt^−1
- FENa, fractional excretion of sodium [6, 12]: 0.241 ± 0.101%
- UNa, urinary sodium [6, 12]: 64.83 ± 12.93 meq/1
- UNaV, urinary sodium excretion rate [6, 12]: 224.30 ± 60.34 μeq · min^−1 · g kidney wt^−1
- V, urine flow rate [6, 13]: 4.31 ± 0.84 μl · min^−1 · g kidney wt^−1
- FENa, fractional excretion of sodium [6, 14]: 0.285 ± 0.094%
- UNa, urinary sodium [6, 14]: 89.50 ± 19.82 meq/1
- UNaV, urinary sodium excretion rate [6, 14]: 384.98 ± 124.39 μeq · min^−1 · g kidney wt^−1
- increase of fractional excretion of sodium ([7]; CHF individuals): 3 fold
- enhancement of sodium excretion [7]: three-to-eight fold
- hypotension ([7]; human, in vivo): None became hypotensive
- time after stopping infusion for which diuresis / urine flow is still significantly elevated (P<0.01) ([7]; humans with congestive heart failure, listed as Pro ANF's 1-30): ≥ 3 h
- increase in cyclic GMP levels over baseline levels associated with vasodilation [8]: four-to-five fold

Molecule: angiotensin II [reference compound]
- inhibition of renal medullary Na+-K+-ATPase activity [4]: significant at P<0.01

Molecule: CC[C@H](C)[C@@H]1NC(=O)[C@H](CCCNC(=N)N)NC(=O)[C@H](CC(=O)O)NC(=O)[C@H](CCSC)NC(=O)[C@H](CCCNC(=N)N)NC(=O)CNC(=O)CNC(=O)[C@H](Cc2ccccc2)NC(=O)[C@@H](NC(=O)[C@H](CO)NC(=O)[C@H](CO)NC(=O)[C@H](CCCNC(=N)N)NC(=O)[C@H](CCCNC(=N)N)NC(=O)[C@H](CC(C)C)NC(=O)[C@@H](N)CO)CSSC[C@@H](C(=O)N[C@@H](CC(N)=O)C(=O)N[C@@H](CO)C(=O)N[C@@H](Cc2ccccc2)C(=O)N[C@@H](CCCNC(=N)N)C(=O)N[C@@H](Cc2ccc(O)cc2)C(=O)O)NC(=O)CNC(=O)[C@H](CC(C)C)NC(=O)CNC(=O)[C@H](CO)NC(=O)[C@H](CCC(N)=O)NC(=O)[C@H](C)NC(=O)CNC1=O [ANF, reference compound]
- hypotension ([7]; human, in vivo): became hypotensive

Molecule: human atrial natriuretic factor (ANF) (peptide)
- half maximal activation (ED50) of guanylate cyclase activity [9]: 10 nM

Molecule: COc1ccc2cc([C@H](C)C(=O)O)ccc2c1 [Naproxen, reference compound]
- blockade of the peptides' effects on renal medullary Na+-K+-ATPase ([4]; 0.5 mM): completely blocked

Molecule: H-SSDRSALLKSKLRALLTAPR-OH [proANF 79-98]
- particulate guanylate cyclase activity [1]: enhance
- prostaglandin E2 (PGE2) synthesis [2]: increase prostaglandin E2 (PGE2) synthesis
- potassium excretion [3]: significant (P<0.05)
- increase in urine volume (in words) [3]: significant
- sodium excretion (in words) ([3]; listed as ProANF 79-98): does not have natriuretic effects in healthy humans
- systolic and diastolic blood pressures [3]: significant
- potassium excretion ([3]; listed as ProANF 79-98): strongest stimulator of potassium excretion of any of the atrial peptides; also recorded: significant (P<0.01) enhancer of potassium excretion
- increase in urine flow ([3]; infusion): 2 fold
- inhibition of renal medullary Na+-K+-ATPase activity [4]: significant at P<0.01
- cyclic GMP levels in cultured smooth muscle cells [5]: increase cyclic GMP levels
- concentration of maximal activation of guanylate cyclase activity [5]: about 1 μM
- EC50 [5]: ~10 nM
- FENa, fractional excretion of sodium [6, 10]: 0.030 ± 0.024%
- UNa, urinary sodium [6, 10]: 42.27 ± 24.68 meq/1
- UNaV, urinary sodium excretion rate [6, 10]: 90.88 ± 77.76 μeq · min^−1 · g kidney wt^−1
- V, urine flow rate [6, 10]: 2.62 ± 0.70 μl · min^−1 · g kidney wt^−1
- V, urine flow rate [6, 11]: 4.75 ± 1.57 μl · min^−1 · g kidney wt^−1
- FENa, fractional excretion of sodium [6, 12]: 0.200 ± 0.152%
- UNa, urinary sodium [6, 12]: 63.30 ± 22.11 meq/1
- UNaV, urinary sodium excretion rate [6, 12]: 363.98 ± 261.85 μeq · min^−1 · g kidney wt^−1
- V, urine flow rate [6, 13]: 5.16 ± 1.04 μl · min^−1 · g kidney wt^−1
- FENa, fractional excretion of sodium [6, 14]: 0.368 ± 0.273%
- UNa, urinary sodium [6, 14]: 92.53 ± 29.17 meq/1
- UNaV, urinary sodium excretion rate [6, 14]: 564.22 ± 315.48 μeq · min^−1 · g kidney wt^−1
- potassium excretion ([6]; rat clearance model): very significant stimulator of potassium excretion
- sodium excretion (in words) ([6]; rat clearance model): does not significantly increase sodium excretion
- hypotension ([7]; CHF patients): None became hypotensive
- enhancement of sodium excretion [7]: 3 fold
- increase of urine flow (maximal) ([7]; NYHA class III CHF, 100 ng/kg body weight/min i.v. for 60 minutes, P<0.001): 4 fold
- effects in persons with CHF compared to healthy individuals ([7]; diuretic and natriuretic effects): not blunted in persons with CHF but rather are increased compared to healthy individuals
- increase in cyclic GMP levels over baseline levels associated with vasodilation [8]: four-to-five fold

Molecule: H-SSDRSALLKSKLRALLTAPR-OH [human pro-ANF 79-98]
- half maximal activation (ED50) of guanylate cyclase activity [9]: 10 nM

Molecule: H-EVVPPQVLSEPNEEAGAALSPLPEVPPWTGEVSPAQR-OH [human pro-ANF 31-67]
- half maximal activation (ED50) of guanylate cyclase activity [9]: 10 nM

Molecule: H-NPMYNAVSNADLMDFKNLLDHLEEKMPLED-OH [human pro-ANF 1-30]
- half maximal activation (ED50) of guanylate cyclase activity [9]: 10 nM
